Assay results taken from patent publication US8192962B2, “Processes for detecting toxic substances” (Daikin Industries, Ltd., priority 2001, dated 2012).

Test system: Transport facilitation protein genes
Assay: DNA chip mRNA expression in yeast, transport facilitation protein genes (Table 5)
Format: cell-based, Saccharomyces cerevisiae S288C
Procedure, shortened: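 In this screen, yeast in logarithmic growth are challenged for two hours with a toxic substance at a non-lethal inhibitory concentration. Their mRNA, converted to Cy3- or Cy5-labeled cDNA, hybridizes at 65° C. to a chip spanning every yeast gene, and expression is expressed as a ratio to untreated cells.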

CCCCC[C@H](O)CC(=O)CCc1ccc(O)c(OC)c1 [(13), gingerol]
The level of expressed mRNA in the presence of chemical substance/The level of expressed mRNA in the absence of chemical substance (yeast gene YBL030C): 0.5
The level of expressed mRNA in the presence of chemical substance/The level of expressed mRNA in the absence of chemical substance (yeast gene YBL099W): 0.9
The level of expressed mRNA in the presence of chemical substance/The level of expressed mRNA in the absence of chemical substance (yeast gene YBR052C): 2.1
The level of expressed mRNA in the presence of chemical substance/The level of expressed mRNA in the absence of chemical substance (yeast gene YBR068C): 2.2
The level of expressed mRNA in the presence of chemical substance/The level of expressed mRNA in the absence of chemical substance (yeast gene YBR127C): 0.9
The level of expressed mRNA in the presence of chemical substance/The level of expressed mRNA in the absence of chemical substance (yeast gene YBR132C): 1.4
The level of expressed mRNA in the presence of chemical substance/The level of expressed mRNA in the absence of chemical substance (yeast gene YBR207W): 2.2
The level of expressed mRNA in the presence of chemical substance/The level of expressed mRNA in the absence of chemical substance (yeast gene YBR291C): 1.0
The level of expressed mRNA in the presence of chemical substance/The level of expressed mRNA in the absence of chemical substance (yeast gene YBR293W): 3.0
The level of expressed mRNA in the presence of chemical substance/The level of expressed mRNA in the absence of chemical substance (yeast gene YBR294W): 3.1
The level of expressed mRNA in the presence of chemical substance/The level of expressed mRNA in the absence of chemical substance (yeast gene YBR295W): 1.8
The level of expressed mRNA in the presence of chemical substance/The level of expressed mRNA in the absence of chemical substance (yeast gene YBR298C): 0.8
The level of expressed mRNA in the presence of chemical substance/The level of expressed mRNA in the absence of chemical substance (yeast gene YCL025C): 0.5
The level of expressed mRNA in the presence of chemical substance/The level of expressed mRNA in the absence of chemical substance (yeast gene YCL038C): 1.9
The level of expressed mRNA in the presence of chemical substance/The level of expressed mRNA in the absence of chemical substance (yeast gene YCL069W): 0.8
The level of expressed mRNA in the presence of chemical substance/The level of expressed mRNA in the absence of chemical substance (yeast gene YCR024C-A): 0.5
The level of expressed mRNA in the presence of chemical substance/The level of expressed mRNA in the absence of chemical substance (yeast gene YCR037C): 1.3
The level of expressed mRNA in the presence of chemical substance/The level of expressed mRNA in the absence of chemical substance (yeast gene YCR098C): 1.4
The level of expressed mRNA in the presence of chemical substance/The level of expressed mRNA in the absence of chemical substance (yeast gene YDL128W): 1.6
The level of expressed mRNA in the presence of chemical substance/The level of expressed mRNA in the absence of chemical substance (yeast gene YDL198C): 2.0
The level of expressed mRNA in the presence of chemical substance/The level of expressed mRNA in the absence of chemical substance (yeast gene YDL210W): 1.2
The level of expressed mRNA in the presence of chemical substance/The level of expressed mRNA in the absence of chemical substance (yeast gene YDL245C): 2.0
The level of expressed mRNA in the presence of chemical substance/The level of expressed mRNA in the absence of chemical substance (yeast gene YDR038C): 2.0
The level of expressed mRNA in the presence of chemical substance/The level of expressed mRNA in the absence of chemical substance (yeast gene YDR039C): 1.8
The level of expressed mRNA in the presence of chemical substance/The level of expressed mRNA in the absence of chemical substance (yeast gene YDR086C): 0.7
The level of expressed mRNA in the presence of chemical substance/The level of expressed mRNA in the absence of chemical substance (yeast gene YDR270W): 1.8
The level of expressed mRNA in the presence of chemical substance/The level of expressed mRNA in the absence of chemical substance (yeast gene YDR298C): 1.2
The level of expressed mRNA in the presence of chemical substance/The level of expressed mRNA in the absence of chemical substance (yeast gene YDR342C): 0.6
The level of expressed mRNA in the presence of chemical substance/The level of expressed mRNA in the absence of chemical substance (yeast gene YDR343C): 0.8
The level of expressed mRNA in the presence of chemical substance/The level of expressed mRNA in the absence of chemical substance (yeast gene YDR345C): 1.2
The level of expressed mRNA in the presence of chemical substance/The level of expressed mRNA in the absence of chemical substance (yeast gene YDR387C): 1.3
The level of expressed mRNA in the presence of chemical substance/The level of expressed mRNA in the absence of chemical substance (yeast gene YEL027W): 0.7
The level of expressed mRNA in the presence of chemical substance/The level of expressed mRNA in the absence of chemical substance (yeast gene YEL065W): 0.8
The level of expressed mRNA in the presence of chemical substance/The level of expressed mRNA in the absence of chemical substance (yeast gene YER119C): 1.6
The level of expressed mRNA in the presence of chemical substance/The level of expressed mRNA in the absence of chemical substance (yeast gene YFL011W): 0.8
The level of expressed mRNA in the presence of chemical substance/The level of expressed mRNA in the absence of chemical substance (yeast gene YFL041W): 1.8
The level of expressed mRNA in the presence of chemical substance/The level of expressed mRNA in the absence of chemical substance (yeast gene YFL050C): 1.2
The level of expressed mRNA in the presence of chemical substance/The level of expressed mRNA in the absence of chemical substance (yeast gene YFL054C): 2.3
The level of expressed mRNA in the presence of chemical substance/The level of expressed mRNA in the absence of chemical substance (yeast gene YFL055W): 1.3
The level of expressed mRNA in the presence of chemical substance/The level of expressed mRNA in the absence of chemical substance (yeast gene YGL008C): 1.9
The level of expressed mRNA in the presence of chemical substance/The level of expressed mRNA in the absence of chemical substance (yeast gene YGL104C): 2.0
The level of expressed mRNA in the presence of chemical substance/The level of expressed mRNA in the absence of chemical substance (yeast gene YGL167C): 1.5
The level of expressed mRNA in the presence of chemical substance/The level of expressed mRNA in the absence of chemical substance (yeast gene YGR055W): 1.9
The level of expressed mRNA in the presence of chemical substance/The level of expressed mRNA in the absence of chemical substance (yeast gene YGR065C): 0.8
The level of expressed mRNA in the presence of chemical substance/The level of expressed mRNA in the absence of chemical substance (yeast gene YGR082W): 0.5
The level of expressed mRNA in the presence of chemical substance/The level of expressed mRNA in the absence of chemical substance (yeast gene YGR138C): 0.6
The level of expressed mRNA in the presence of chemical substance/The level of expressed mRNA in the absence of chemical substance (yeast gene YGR191W): 1.0
The level of expressed mRNA in the presence of chemical substance/The level of expressed mRNA in the absence of chemical substance (yeast gene YGR197C): 2.4
The level of expressed mRNA in the presence of chemical substance/The level of expressed mRNA in the absence of chemical substance (yeast gene YGR224W): 0.8
The level of expressed mRNA in the presence of chemical substance/The level of expressed mRNA in the absence of chemical substance (yeast gene YGR260W): 0.5
